This passage reports IC50 results from patent US7160684B2, “Methods of selecting compounds for modulation of bladder function” (Wyeth, priority 2000, dated 2007).

Read-outs that look alike come from different tables or passages of the source.

This assay relates to isolated rat bladder strips. The assay is described as follows: Isolated rat bladder strip contraction. Particulars: Rattus norvegicus, n=4. The procedure: Male Sprague-Dawley rats (200–400 grams) are euthanized by CO2 inhalation and exsanguination. Their urinary bladders are rapidly removed and placed in […] physiological salt solution (PSS) that contained the following (mM): NaCl (118.4), KCl (5), CaCl2 (2.5), MgSO4 (1.2), KH2PO4 (1.2), NaHCO3 (24.9) and D-glucose (11.1) gassed with O2/CO2 (95% /5%) to achieve a pH of 7.4. The dome of the bladder is isolated from the trigon region and this tissue is then cut into 4–5 mm wide by 10 mm long strips. One end is secured to the bottom of a water jacketed tissue bath and the other to a GRASS isometric force transducer (Grass Instruments, Quincy, Mass.). Tissues are pretensioned (0.25 to 0.5 grams), and after 30 minutes of equilibration are contracted with an additional 15 mM KCl (total of 20 mM) and again allowed to equilibrate until the preparations are contracting steadily. Any of a variety of compounds are administered directly into the tissue baths as sequential concentrations. Transducer signals are digitized (12 bit resolution) and analyzed on-line using a 586-based computer and custom software. The area under the contraction curve (AUC) is used as a measure of contractility since the spontaneous bladder contractions are irregular in amplitude and frequency. A 5-minute AUC value is taken 30 minutes after administration of each compound concentration to the tissue bath.
We isolated rat bladder strips from male Sprague-Dawley rats as previously described, (Wojdan, A., Freeden, C., Woods, M., Oshiro, G., Spinelli, W. et al., J Pharmacol Exp Therap 289: 1410–1418 (1999)) and precontracted them with 20 mM KCl. The KCNQ channel agonist retigabine, was added to the tissue bath in increasing concentrations, and area under the contraction curve was analyzed.
In another study, isolated rat bladder strips were precontracted with 60 mM KCl (FIG. 1).
The difference in IC50s between 20 and 60 mM KCl depolarizations are consistent with a potassium channel opening mechanism.
Rat bladder strips were isolated and prepared as previously described (Wojdan, A., Freeden, C., Woods, M., Oshiro, G., Spinelli, W. et al., J Pharmacol ExpTherap 289:1410–1418 (1999)). Preparations were contracted with either 20 or 60 mM KCl, or 200 nM carbachol. A five minute area under the contraction curve was acquired 20 minutes after addition of each concentration of retigabine using a 12 bit D/A and a 586 based personal computer running custom software. Message for KCNQ subunits was probed using quantitative rtPCR on an ABI PRISM 7700 Sequence Detection System (TAQMAN). Forward and reverse primers and TAQMAN probes were designed using published RNA sequences for human KCNQ1–5 and rat KCNQ 1–4 listed within the NCBI data base. Since no rat sequence for KCNQ5 were currently published, probes and primers were designed by BLAST analysis of rat Expressed Sequence Tags (EST) using the known mouse KNCQ5 sequence. From homologous EST sequences, a contiguous sequence of 384 base pairs was constructed. Probes and primers were designed against this sequence. BLAST analysis of our rat KCNQ5 probes and primer were selective for mouse and human KCNQ5 sequences. PCR products were confirmed by gel electrophoresis (data not shown). Cells for electrophysiology were prepared from rat bladder smooth muscle as previously described (Wojdan et al., 1999). Human bladder smooth muscle cells were obtained from Clonetics, San Diego, Calif. […]

As for `CCOC(=O)Nc1ccc(NCc2ccc(F)cc2)cc1N` [retigabine, N-[2-amino-4-(4-fluorobenzylamino)-phenyl]carbamic acid ethyl ester], the IC50 (read-out: IC50 for inhibition of isolated rat bladder strip contractions, precontracted with 20 mM KCl, area under the contraction curve) is 1.4 ± 0.1 µM and the IC50 (read-out: IC50 for inhibition of isolated rat bladder strip contractions, precontracted with 60 mM KCl) worked out at 21.8 ± 0.8 µM.
